In one series the test system is Pseudomonas aeruginosa. In words: Antibacterial activity against Pseudomonas aeruginosa assessed as inhibition of bacterial growth at 100 uM. It counts as functional, organism-based.
The subject of series [1] is RAW264.7. Description: Pro-inflamamtory activity in LPS-induced mouse RAW264.7 cells assessed as increase in NO production at 100 uM. The series is classed as functional, cell-based.
The next series has as its system Staphylococcus aureus. Description: Antibacterial activity against Staphylococcus aureus assessed as inhibition of bacterial growth at 100 uM. It counts as functional, organism-based.
A further series relates to Escherichia coli. Description: Antibacterial activity against Escherichia coli assessed as inhibition of bacterial growth at 100 uM. It counts as functional, organism-based.
For another series, the system named is Bacillus subtilis. Description: Antibacterial activity against Bacillus subtilis assessed as inhibition of bacterial growth at 100 uM. It counts as functional, organism-based.
Series [2] relates to RAW264.7. In words: Anti-inflammatory activity against LPS-induced mouse RAW264.7 cells assessed as inhibition of NO production at 100 uM. The series is classed as functional, cell-based.
For series [3], the system named is RAW264.7. Description: Anti-inflammatory activity against LPS-induced mouse RAW264.7 cells assessed as inhibition of IL-1 beta production at 100 uM by ELISA. It counts as functional.
Series [4] can be described thus: Stability of the compound in dichloromethane measured after 2 months. The series is classed as physicochemical. Conditions: 1460 h.
Series [5] concerns RAW264.7. In words: Cytotoxicity against mouse RAW264.7 cells assessed as effect on cell viability at 100 uM. Conditions: raw264.7, 100 µM. The series is classed as toxicity, cell-based.
Series [6] deals with RAW264.7. In words: Anti-inflammatory activity against LPS-induced mouse RAW264.7 cells assessed as inhibition of TNF-alpha production at 100 uM by ELISA. It counts as functional. (In an ELISA, binding on a coated surface is turned into a signal by an enzyme label.)
Series [7] deals with RAW264.7. In words: Anti-inflammatory activity against LPS-induced mouse RAW264.7 cells assessed as inhibition of NO production. The series is classed as functional, cell-based.

Activity calls are given as the source filed them. No cut-off for these calls is given here.

What is called inhibition is the share of the control response that was lost under treatment. The term IC50 denotes the midpoint of a concentration-inhibition curve.

For `C/C=C1/C2=CCCN3C(=O)O[C@H]([C@H]1O)[C@H]23`, the outcome in the series on Pseudomonas aeruginosa, with Staphylococcus aureus, with Escherichia coli and in the series with Bacillus subtilis was inactive. In addition, the result in the series with RAW264.7 [1] was Active.
For the compound `C/C=C1/C2=CCCN3C(=O)O[C@H]([C@H]1OC(=O)CCC)[C@H]23`, the outcome with Pseudomonas aeruginosa, in the series with RAW264.7 [2], in the series on Staphylococcus aureus, in the series on Escherichia coli and with Bacillus subtilis was inactive.
On to `C/C=C1/C2=CCCN3C(=O)O[C@H]([C@H]1OC(=O)c1ccc(C)cc1)[C@H]23`, for which the result in the series with Pseudomonas aeruginosa, in the series with Staphylococcus aureus, in the series on Escherichia coli and in the series on Bacillus subtilis was inactive. Moreover, in the series with RAW264.7 [2], the result was Active.
As for `C/C=C1/C2=CCCN3C(=O)O[C@H]([C@H]1OC(=O)CC)[C@H]23`, the outcome in the series with Pseudomonas aeruginosa, in the series with RAW264.7 [2], with Staphylococcus aureus, with Escherichia coli and with Bacillus subtilis was inactive.
Take `C/C=C1/C2=CCCN3C(=O)O[C@H]([C@@H]1Cl)[C@H]23`: the outcome in the series on Pseudomonas aeruginosa, in the series with Staphylococcus aureus, in the series with Escherichia coli and in the series on Bacillus subtilis was inactive.
As for `C/C=C1/C2=CCCN3C(=O)O[C@H]([C@H]1OC(=O)C(C)(C)C)[C@H]23`, the outcome in the series with Pseudomonas aeruginosa, in the series with Staphylococcus aureus, in the series with Escherichia coli and in the series with Bacillus subtilis was inactive. In addition, in the series on RAW264.7 [2], the result was Active.
Regarding `C/C=C1/C2=CCCN3C(=O)O[C@H]([C@H]1OC(=O)/C=C/c1ccccc1)[C@H]23`, the result with Pseudomonas aeruginosa, in the series with Staphylococcus aureus, with Escherichia coli and in the series on Bacillus subtilis was inactive. In the series with RAW264.7 [2], the outcome was Active.
Regarding `C/C=C1/C2=CCCN3C(=O)O[C@H]([C@H]1OS(=O)(=O)CCC)[C@H]23`, the result in the series on Pseudomonas aeruginosa, in the series on Staphylococcus aureus, in the series with Escherichia coli and in the series with Bacillus subtilis was inactive. Further, the result in the series with RAW264.7 [2] was Active.
`C/C=C1/C2=CCCN3C(=O)O[C@H]([C@H]1OC(=O)CCCCCCCCC)[C@H]23`: the result with Pseudomonas aeruginosa, in the series with RAW264.7 [2], in the series with Staphylococcus aureus, with Escherichia coli and in the series with Bacillus subtilis was inactive. The outcome in the series on RAW264.7 [1] was Active.
For the compound `C/C=C1/C2=CCCN3C(=O)O[C@H]([C@H]1OC(=O)C1CCCCC1)[C@H]23`, the result in the series on Pseudomonas aeruginosa, in the series on Staphylococcus aureus, with Escherichia coli and in the series on Bacillus subtilis was inactive. Also, the outcome in the series with RAW264.7 [2] was Active.
Turning to `C/C=C1/C2=CCCN3C(=O)O[C@H]([C@H]1OC(=O)CCCCCCCCCCC)[C@H]23`, the result in the series on Pseudomonas aeruginosa, in the series with RAW264.7 [2], in the series on Staphylococcus aureus, with Escherichia coli and with Bacillus subtilis was inactive.
With `C/C=C1/C2=CCCN3C(=O)O[C@H]([C@H]1OC(=O)C(C)C)[C@H]23`, the outcome with Pseudomonas aeruginosa, in the series on RAW264.7 [2], in the series with Staphylococcus aureus, in the series with Escherichia coli and in the series with Bacillus subtilis was inactive.
Regarding `C/C=C1/C2=CCCN3C(=O)O[C@H]([C@H]1OS(C)(=O)=O)[C@H]23`, the result in the series on Pseudomonas aeruginosa, with Staphylococcus aureus, in the series with Escherichia coli and in the series on Bacillus subtilis was inactive. Further, the outcome in the series on RAW264.7 [2] was Active.
As to `C/C=C1/C2=CCCN3C(=O)O[C@H]([C@H]1OC(=O)CCCC)[C@H]23`, the result in the series on Pseudomonas aeruginosa, in the series on Staphylococcus aureus, in the series on Escherichia coli and in the series with Bacillus subtilis was inactive. For the same compound, the outcome in the series on RAW264.7 [2] was Active. Moreover, the figures for the inhibition at 100 µM in the series on RAW264.7 [3] and in the series on RAW264.7 [6] were over 90% and at most 60%, respectively. The Stability entry in series [4] is listed as “Stable”. In addition, the Activity result in the series with RAW264.7 [5] was “Non-toxic”; in the series on RAW264.7 [7] it was “Dose-dependent-effect”. In the series on RAW264.7 [7], the IC50 is 8.8 µM.
As to `C/C=C1/C2=CCCN3C(=O)O[C@H]([C@H]1OC(C)=O)[C@H]23`, the outcome in the series with Pseudomonas aeruginosa, with RAW264.7 [2], with Staphylococcus aureus, in the series on Escherichia coli and in the series with Bacillus subtilis was inactive.
Consider `C/C=C1/C2=CCCN3C(=O)O[C@H]([C@H]1OC(=O)c1ccccc1)[C@H]23`, for which the outcome in the series on Pseudomonas aeruginosa, in the series with Staphylococcus aureus, with Escherichia coli and with Bacillus subtilis was inactive. In addition, the result in the series with RAW264.7 [2] was Active.
